Like-named read-outs stand apart in the source and are kept apart here.
Legend:
[1] = Hepatocyte stability, 1% final DMSO, 2 μM substrate (t1/2^a); format: in vitro ADME; settings: human, cryopreserved hepatocytes, TA with 1% final DMSO
Procedure: This assay was used to evaluate the metabolic stability of test articles (TA) following incubation in cryopreserved hepatocytes by monitoring parent drug disappearance via […]. The TA with 1% final DMSO concentration was incubated with 1 million hepatocytes/ml at 2 μM substrate in duplicate. The incubation was carried out at 37° C. with 5% CO2 and saturating humidity.

PI3Kδ = target: T1, PI3Kδ (Homo sapiens, UniProt O00329); assay: Enzymatic activity of PI3K isoforms, TR-FRET assay (PIP3 formation); format: biochemical
T1 construct: made in house
How it was run: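 Recombinant heterodimeric class I PI3K; PIP3 product measured by TR-FRET competition with labelled PIP3 for Eu-GRP-1 PH domain. Reaction 30 min at 25 °C, stopped with 10 mM EDTA.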

[2] = Hepatocyte stability, 0.01% final DMSO, 1 μM substrate (t1/2^b); format: in vitro ADME; settings: human, hepatocytes, TA with 0.01% final DMSO
Procedure: Alternatively, assay reagents and/or conditions can be modified in determining the inhibitory activities to PI3K isomers. In additional studies, similar assay using TA and 0.01% final DMSO concentration were incubated with 1 million hepatocytes/mL at 1 μM substrate in duplicate. The incubation was carried out at 37° C. with 5% CO2 and saturating humidity.

basophils = assay: Basophil activation in human whole blood (Flow2 CAST kit, CD63 positive cells); format: cell-based; settings: Homo sapiens
How it was run: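 Human whole blood (K2-EDTA) preincubated 60 minutes at 37° C with compound serial dilutions or DMSO (0.3% final), then stimulated with anti-FcεRI mAb or fMLP and stained for CD63/CCR3. Percent CD63+ among ≥200 CCR3-high basophils by flow cytometry, normalized to stimulated vehicle as 100%. EC50 from four-parameter fits, geometric means in nM, concentrations corrected for reagent dilution.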

[3] = 2 μM substrate, samples at 0, 1, 2, 4 hours, read-out: human hepatocyte t½^a
[4] = PI3Kδ, TR-FRET, 2×Km ATP, 10 μM PIP2, read-out: IC50
[5] = 1 μM substrate, samples at 0, 1, 3, 6 hours, read-out: human hepatocyte t½^b
[6] = basophils activated with anti-FcεRI mAb or fMLP, geometric mean
[7] = human hepatocytes, read-out: t1/2^a
[8] = human hepatocytes, read-out: t1/2^b

T1 sequence (O00329 whole entry, canonical isoform): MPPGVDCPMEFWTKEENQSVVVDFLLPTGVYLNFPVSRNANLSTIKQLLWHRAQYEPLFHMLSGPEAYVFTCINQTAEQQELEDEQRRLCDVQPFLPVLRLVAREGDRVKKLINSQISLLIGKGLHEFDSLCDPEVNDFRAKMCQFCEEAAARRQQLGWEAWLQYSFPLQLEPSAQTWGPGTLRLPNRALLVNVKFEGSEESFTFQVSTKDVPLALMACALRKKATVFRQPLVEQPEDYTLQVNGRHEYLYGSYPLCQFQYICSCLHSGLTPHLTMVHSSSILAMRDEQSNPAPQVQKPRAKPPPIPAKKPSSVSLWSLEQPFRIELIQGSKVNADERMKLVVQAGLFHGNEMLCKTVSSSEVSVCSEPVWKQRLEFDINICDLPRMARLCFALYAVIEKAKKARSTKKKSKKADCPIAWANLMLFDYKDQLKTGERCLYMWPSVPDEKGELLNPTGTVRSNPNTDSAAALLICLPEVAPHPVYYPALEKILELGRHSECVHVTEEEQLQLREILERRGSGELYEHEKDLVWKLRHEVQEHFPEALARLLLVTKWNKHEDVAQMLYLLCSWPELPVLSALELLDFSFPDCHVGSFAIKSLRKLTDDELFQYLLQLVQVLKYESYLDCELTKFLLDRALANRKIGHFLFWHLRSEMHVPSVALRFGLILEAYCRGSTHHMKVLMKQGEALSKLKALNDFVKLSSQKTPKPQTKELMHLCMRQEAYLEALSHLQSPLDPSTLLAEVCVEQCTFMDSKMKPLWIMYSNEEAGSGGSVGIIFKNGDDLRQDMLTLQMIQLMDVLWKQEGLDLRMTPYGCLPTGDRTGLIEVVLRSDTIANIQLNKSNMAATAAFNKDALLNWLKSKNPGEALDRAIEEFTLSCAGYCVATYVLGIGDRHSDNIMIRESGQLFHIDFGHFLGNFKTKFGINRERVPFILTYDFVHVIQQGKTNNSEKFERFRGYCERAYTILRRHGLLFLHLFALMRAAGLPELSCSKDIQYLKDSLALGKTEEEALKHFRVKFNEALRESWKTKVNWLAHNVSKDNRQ
T1 sequence (P27986 whole entry partner, canonical isoform): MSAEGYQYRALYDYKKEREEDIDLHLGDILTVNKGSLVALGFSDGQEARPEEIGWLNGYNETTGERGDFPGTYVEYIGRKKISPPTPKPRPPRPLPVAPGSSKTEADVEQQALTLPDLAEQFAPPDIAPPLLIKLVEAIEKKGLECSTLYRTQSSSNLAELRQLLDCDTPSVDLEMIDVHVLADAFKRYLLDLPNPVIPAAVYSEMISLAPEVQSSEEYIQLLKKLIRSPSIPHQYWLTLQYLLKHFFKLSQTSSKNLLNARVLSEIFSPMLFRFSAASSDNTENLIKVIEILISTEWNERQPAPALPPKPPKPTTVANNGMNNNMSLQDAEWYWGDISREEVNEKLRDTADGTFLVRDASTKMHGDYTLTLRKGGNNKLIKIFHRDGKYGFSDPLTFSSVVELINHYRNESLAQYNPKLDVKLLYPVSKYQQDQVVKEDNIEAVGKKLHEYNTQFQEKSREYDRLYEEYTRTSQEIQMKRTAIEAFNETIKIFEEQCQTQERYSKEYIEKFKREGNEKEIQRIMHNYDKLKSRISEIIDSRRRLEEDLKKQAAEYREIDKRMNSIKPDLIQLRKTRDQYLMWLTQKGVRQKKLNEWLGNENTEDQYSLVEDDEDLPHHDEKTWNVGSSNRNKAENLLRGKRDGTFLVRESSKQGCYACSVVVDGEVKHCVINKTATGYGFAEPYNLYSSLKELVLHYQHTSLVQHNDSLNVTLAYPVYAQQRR

Q: For `CC(Nc1nc(N)nc(N)c1C#N)c1nc2cccc(F)c2c(=O)n1-c1cc(Cl)cc(Cl)c1` (single isomer, unassigned) [Compound 42a], which half-life at 2 μM [1, 3] is on record?
A: > 10 h

Q: What about the IC50 (PI3Kδ; [4]) of the same compound?
A: 0.01 to 0.05 µM

Q: And the half-life at 1 μM [2, 5]?
A: 1 to 3 h

Q: What about the EC50 (basophils; [6]) of the same compound?
A: 0.001 to 0.01 µM

Q: With `Cc1ccc(F)c2c(=O)n(-c3ccccc3)c(C(C)Nc3nc(N)nc(N)c3C#N)nc12` (single isomer, unassigned) [Compound 61a] as the compound, how does the half-life at 2 μM [1, 3] read?
A: > 10 h

Q: What about the IC50 (PI3Kδ; [4]) of the same compound?
A: 0.001 to 0.01 µM

Q: And the half-life at 1 μM [2, 5]?
A: 3 to 6 h

Q: And the EC50 (basophils; [6])?
A: < 0.001 µM

Q: Which half-life at 2 μM [1, 3] does the source give for `C[C@H](Nc1nc(N)nc(N)c1C#N)c1nc2cccc(Cl)c2c(=O)n1-c1cc(F)cc(F)c1` [Compound 1a, 2,4-diamino-6-((1-(5-chloro-3-(3,5-difluorophenyl)-4-oxo-3,4-dihydroquinazolin-2-yl)ethyl)amino)pyrimidine-5-carbonitrile] here?
A: 6 to 10 h

Q: And the half-life at 2 μM [1, 7]?
A: > 9 h

Q: What about the IC50 (PI3Kδ; [4]) of the same compound?
A: < 0.001 µM

Q: What about the half-life at 1 μM [2, 5] of the same compound?
A: 1 to 3 h

Q: What about the half-life at 1 μM [2, 8] of the same compound?
A: > 1 h

Q: And the EC50 (basophils; basophil activation)?
A: < 0.0005 µM

Q: What about the EC50 (basophils; [6]) of the same compound?
A: < 0.001 µM

Q: With `CC(Nc1nc(N)nc(N)c1C#N)c1nc2c(C#N)cccc2c(=O)n1-c1ccccc1` (single isomer, unassigned) [Compound 122a] as the compound, how does the half-life at 2 μM [1, 3] read?
A: > 10 h

Q: What about the IC50 (PI3Kδ; [4]) of the same compound?
A: 0.001 to 0.01 µM

Q: What about the half-life at 1 μM [2, 5] of the same compound?
A: > 10 h

Q: What about the EC50 (basophils; [6]) of the same compound?
A: 0.001 to 0.01 µM

Q: What does the source list for `CC(Nc1nc(N)nc(N)c1C#N)c1nc2c(Cl)ccc(F)c2c(=O)n1-c1cc(F)cc(F)c1` (single isomer, unassigned) [Compound 67a]?
A: half-life at 2 μM [1, 3]: > 10 h; IC50 (PI3Kδ; [4]): 0.001 to 0.01 µM; half-life at 1 μM [2, 5]: 1 to 3 h; EC50 (basophils; [6]): 0.001 to 0.01 µM

Q: Which half-life at 2 μM [1, 3] does the source give for `CC(Nc1nc(N)nc(N)c1C#N)c1nc2ccc(F)cc2c(=O)n1-c1cc(F)cc(F)c1` (single isomer, unassigned) [Compound 11a] here?
A: > 10 h

Q: And the IC50 (PI3Kδ; [4])?
A: 0.001 to 0.01 µM

Q: What about the half-life at 1 μM [2, 5] of the same compound?
A: 6 to 10 h

Q: What about the EC50 (basophils; [6]) of the same compound?
A: 0.001 to 0.01 µM

Q: Which half-life at 2 μM [1, 3] does the source give for `CC(Nc1nc(N)nc(N)c1C#N)c1nc2c(F)ccc(F)c2c(=O)n1-c1cc(F)cc(F)c1` (single isomer, unassigned) [Compound 21a] here?
A: 6 to 10 h

Q: What about the IC50 (PI3Kδ; [4]) of the same compound?
A: 0.001 to 0.01 µM

Q: And the half-life at 1 μM [2, 5]?
A: 3 to 6 h

Q: What about the EC50 (basophils; [6]) of the same compound?
A: 0.001 to 0.01 µM

Q: For `CC[C@H](Nc1nc(N)nc(N)c1C#N)c1nc2cccc(F)c2c(=O)n1-c1cc(F)cc(F)c1` [Compound 77a, (S)-2,4-diamino-6-((1-(3-(3,5-difluorophenyl)-5-fluoro-4-oxo-3,4-dihydroquinazolin-2-yl)propyl)amino)pyrimidine-5-carbonitrile], which half-life at 2 μM [1, 3] is on record?
A: > 10 h

Q: What about the IC50 (PI3Kδ; [4]) of the same compound?
A: 0.001 to 0.01 µM

Q: And the half-life at 1 μM [2, 5]?
A: 1 to 3 h

Q: What about the EC50 (basophils; [6]) of the same compound?
A: 0.001 to 0.01 µM

Q: Which half-life at 2 μM [1, 3] does the source give for `CC(Nc1nc(N)nc(N)c1C#N)c1nc2cccc(Cl)c2c(=O)n1-c1cccc(F)c1` (single isomer, unassigned) [Compound 108a] here?
A: > 10 h

Q: And the IC50 (PI3Kδ; [4])?
A: < 0.001 µM

Q: And the half-life at 1 μM [2, 5]?
A: 3 to 6 h

Q: And the EC50 (basophils; [6])?
A: 0.001 to 0.01 µM

Q: For `CCC(Nc1nc(N)nc(N)c1C#N)c1nc2ccccc2c(=O)n1-c1cc(F)cc(F)c1` (single isomer, unassigned) [Compound 36a], which half-life at 2 μM [1, 3] is on record?
A: > 10 h

Q: And the IC50 (PI3Kδ; [4])?
A: 0.01 to 0.05 µM

Q: And the half-life at 1 μM [2, 5]?
A: > 10 h

Q: And the EC50 (basophils; [6])?
A: 0.001 to 0.01 µM

Q: What does the source list for `CC(Nc1nc(N)nc(N)c1C#N)c1nc2cccc(F)c2c(=O)n1-c1cccc(C#N)c1` (single isomer, unassigned) [Compound 38a]?
A: half-life at 2 μM [1, 3]: > 10 h; IC50 (PI3Kδ; [4]): 0.01 to 0.05 µM; half-life at 1 μM [2, 5]: > 10 h; EC50 (basophils; [6]): 0.001 to 0.01 µM

Q: With `C[C@H](Nc1ncnc(N)c1C#N)c1nc2cccc(Cl)c2c(=O)n1-c1ccccc1` [Y, reference compound] as the compound, how does the half-life at 2 μM [1, 3] read?
A: < 1 h

Q: What about the half-life at 2 μM [1, 7] of the same compound?
A: < 2 h

Q: And the IC50 (PI3Kδ)?
A: < 0.001 µM

Q: And the half-life at 1 μM [2, 8]?
A: < 2 h

Q: What about the EC50 (basophils; basophil activation) of the same compound?
A: > 0.015 µM

Q: What about the EC50 (basophils; [6]) of the same compound?
A: 0.01 to 0.05 µM

Q: Which results are given for `CC(Nc1nc(N)nc(N)c1C#N)c1nc2cccc(Cl)c2c(=O)n1-c1cccc(C(F)F)c1` (single isomer, unassigned) [Compound 106a]?
A: half-life at 2 μM [1, 3]: > 10 h; IC50 (PI3Kδ; [4]): < 0.001 µM; half-life at 1 μM [2, 5]: 1 to 3 h; EC50 (basophils; [6]): 0.001 to 0.01 µM

Q: With `CC(Nc1nc(N)nc(N)c1C#N)c1nc2cccc(F)c2c(=O)n1-c1cccc(C(F)F)c1` (single isomer, unassigned) [Compound 97a] as the compound, how does the half-life at 2 μM [1, 3] read?
A: > 10 h

Q: What about the IC50 (PI3Kδ; [4]) of the same compound?
A: 0.001 to 0.01 µM

Q: And the half-life at 1 μM [2, 5]?
A: 3 to 6 h

Q: And the EC50 (basophils; [6])?
A: 0.001 to 0.01 µM

Q: For `CCC(Nc1nc(N)nc(N)c1C#N)c1nc2c(C)ccc(F)c2c(=O)n1-c1cc(F)cc(F)c1` (single isomer, unassigned) [Compound 37a], which half-life at 2 μM [1, 3] is on record?
A: 6 to 10 h

Q: What about the IC50 (PI3Kδ; [4]) of the same compound?
A: 0.01 to 0.05 µM

Q: What about the half-life at 1 μM [2, 5] of the same compound?
A: 3 to 6 h

Q: And the EC50 (basophils; [6])?
A: 0.01 to 0.05 µM

Q: For `CC(Nc1nc(N)nc(N)c1C#N)c1nc2cccc(C(F)F)c2c(=O)n1-c1cc(F)cc(F)c1` (single isomer, unassigned) [Compound 52a], which half-life at 2 μM [1, 3] is on record?
A: > 10 h

Q: And the IC50 (PI3Kδ; [4])?
A: 0.001 to 0.01 µM

Q: And the half-life at 1 μM [2, 5]?
A: 6 to 10 h

Q: And the EC50 (basophils; [6])?
A: 0.001 to 0.01 µM
